Reference: patent EP0460690A2, “Use of phenolsulfophthaline derivatives for the treatment of osteoporosis” (THE GREEN CROSS CORPORATION, priority 1990, dated 1991)

What was measured:
[1] = system: rats suffering from osteoporosis; assay: Bone mass increase in osteoporosis rats (ovariectomy and sciatic nerve excision); type: in vivo, Wister female rats; details: thigh bone, oral 100 µg/kg body weight everyday in 5 % Tween 20, after 12 weeks; for Bone Mass Ash wt./unit vol.: carrier 370 ± 19, normal rats 387 ± 16; for Bone Mass Dry wt./unit vol.: carrier 821 ± 15, normal rats 976 ± 11
Text: The effects of the phenolsulfophthalein compounds of the present invention of increasing bone mass were examined by using rats suffering from osteoporosis.
Wister female rats aged 7 to 8 months (8 rats per group) were subjected to ovariectomy and sciatic nerve excision to thereby cause osteoporosis. Starting from the next day after the operation, compound 1, as described above, and compound 2 (represented by formula (I), wherein R¹ and R² are both acetyl groups) each dispersed in 5 % Tween 20 were orally administered in a dose of 100 µg/kg body weight everyday. After 12 weeks, the thigh bones of the animals were collected and the volume, dry weight and ash weight were measured. Thus the dry weight and ash weight per unit volume were determined.

Wister female rats = assay: Acute toxicity, oral administration; type: in vivo; details: dispersed in 5 % Tween 20, eight rats, dose of 1 g/kg body weight
Text: Compound 1 dispersed in 5 % Tween 20 was orally administered to eight Wister female rats aged 7 to 8 months.

[2] = biological target: T1, estrogen receptor in mastocarcinoma (Homo sapiens, UniProt P03372); details: literature report; cited from earlier work
T1 construct: host or cells: mastocarcinoma
T1 sequence (P03372 1-595): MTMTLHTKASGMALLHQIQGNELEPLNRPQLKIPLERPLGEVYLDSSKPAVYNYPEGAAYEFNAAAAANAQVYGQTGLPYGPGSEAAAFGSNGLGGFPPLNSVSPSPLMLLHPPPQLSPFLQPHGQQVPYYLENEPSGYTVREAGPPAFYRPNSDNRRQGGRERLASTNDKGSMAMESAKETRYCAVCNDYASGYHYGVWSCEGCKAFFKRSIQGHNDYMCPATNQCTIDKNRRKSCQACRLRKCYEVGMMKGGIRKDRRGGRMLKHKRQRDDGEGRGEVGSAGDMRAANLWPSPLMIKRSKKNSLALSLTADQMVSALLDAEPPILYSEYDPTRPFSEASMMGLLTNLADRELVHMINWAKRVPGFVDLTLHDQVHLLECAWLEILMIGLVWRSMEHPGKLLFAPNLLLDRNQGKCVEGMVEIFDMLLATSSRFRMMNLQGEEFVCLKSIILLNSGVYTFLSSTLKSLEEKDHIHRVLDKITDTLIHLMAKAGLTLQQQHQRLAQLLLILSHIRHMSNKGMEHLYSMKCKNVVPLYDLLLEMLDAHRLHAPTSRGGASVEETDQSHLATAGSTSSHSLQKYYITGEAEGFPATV

O=S(=O)(Oc1ccccc1)c1ccccc1C(c1ccc(O)cc1)c1ccc(O)cc1 [compound 1]
Bone Mass Ash wt./unit vol. [1]: 385 ± 12 mg/mL
Bone Mass Dry wt./unit vol. [1]: 861 ± 12 mg/mL
mortality (acute toxicity) (Wister female rats): no animal died

CC(=O)Oc1ccc(C(c2ccc(OC(C)=O)cc2)c2ccccc2S(=O)(=O)Oc2ccccc2)cc1 [compound 2]
Bone Mass Ash wt./unit vol. [1]: 383 ± 14 mg/mL
Bone Mass Dry wt./unit vol. [1]: 856 ± 15 mg/mL

O=S(=O)(Oc1ccccc1)c1ccccc1C(c1ccc(O)cc1)c1ccc(O)cc1 [drawing 1]
binding to estrogen receptor [2]: binding to an estrogen receptor
